Molecular target: T1, Enoyl-acyl carrier reductase ENR (Toxoplasma gondii, UniProt Q6UCJ9)
T1 sequence (Q6UCJ9 whole entry): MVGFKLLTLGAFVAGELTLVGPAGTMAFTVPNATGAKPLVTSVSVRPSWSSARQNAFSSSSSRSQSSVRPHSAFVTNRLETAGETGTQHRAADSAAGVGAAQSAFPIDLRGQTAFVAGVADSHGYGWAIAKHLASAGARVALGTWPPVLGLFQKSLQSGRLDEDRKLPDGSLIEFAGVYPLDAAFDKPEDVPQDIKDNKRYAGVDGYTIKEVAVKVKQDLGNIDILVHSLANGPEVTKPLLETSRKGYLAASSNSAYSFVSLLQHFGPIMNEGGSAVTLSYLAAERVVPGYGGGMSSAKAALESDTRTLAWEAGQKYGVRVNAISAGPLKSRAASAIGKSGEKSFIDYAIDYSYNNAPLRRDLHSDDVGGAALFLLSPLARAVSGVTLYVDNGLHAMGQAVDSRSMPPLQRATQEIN
Assay: TgENR Inhibition Assay
Settings: pH 7.5

SMILES	IC50 [nM]
Oc1cc(Cl)ccc1Oc1ccc(NCc2ccccc2)cc1Cl	13
Oc1ccc(Oc2ccc(Cl)cc2O)c(Cl)c1	3
N#Cc1ccccc1CNc1ccc(Oc2ccc(Cl)cc2O)c(Cl)c1	16
CCc1ccc(Oc2ccc(Cl)cc2Cl)c(O)c1 [2‐(2,4‐dichlorophenoxy)‐5‐ethylphenol (11)]	8
CCCCc1cn(Cc2ccc(Oc3ccc(Cl)cc3O)c(Cl)c2)nn1 [2‐{4‐[(4‐butyl‐1,2,3‐triazol‐1‐yl)methyl]‐2‐ chlorophenoxy}‐5‐chlorophenol (25)]	43
N#Cc1ccc(Oc2ccc(Cl)cc2Cl)c(O)c1 [4‐(2,4‐dichlorophenoxy)‐3‐hydroxybenzonitrile (19)]	24
Oc1cc(Cl)ccc1Oc1ccc(Cn2ccnn2)cc1Cl [5‐chloro‐2‐[2‐chloro‐4‐(1,2,3‐triazol‐1‐ ylmethyl)phenoxy]phenol (24)]	26
Oc1cc(Cl)ccc1Oc1ccc(CNc2ccccc2)cc1Cl [5‐chloro‐2‐{2‐chloro‐4‐ [(phenylamino)methyl]phenoxy}phenol (26)]	31
Cc1cc(CC(=O)NCc2ccc(Oc3ccc(Cl)cc3O)c(Cl)c2)on1 [N‐{[3‐chloro‐4‐(4‐chloro‐2‐ hydroxyphenoxy)phenyl]methyl}‐2‐(3‐methyl‐1,2‐ oxazol‐5‐yl)acetamide (28)]	33
Cc1cc(C(=O)NCc2ccc(Oc3ccc(Cl)cc3O)c(Cl)c2)no1 [N‐{[3‐chloro‐4‐(4‐chloro‐2‐ hydroxyphenoxy)phenyl]methyl}‐5‐methyl‐1,2‐oxazole‐3‐ carboxamide (29)]	100
